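Interpolation was linear, between the two tested concentrations surrounding the appropriate level; five concentrations were tested over 48 hours in 96-well plates. TGI is the concentration that stops growth completely.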

One assay has as its system 786-0 renal. As to the kind of experiment: growth of human tumour cells (NCI), 48 h.
`CCOC(C[C@H](O)[C@H]1COC(=S)S1)OCC`: the TGI was above 100 µM.

The molecule `Cn1c(O)c(C(=O)Nc2cccs2)c(=O)[nH]c1=S` displayed a TGI of 41.8 µM.

For the molecule `O=C1c2cc3c(cc2CC12Cc1cc4c(cc1C2=O)CCCC4)CCCC3`, the TGI stood at 52.4 µM.

The molecule `c1csc(-c2cscc2-c2ccsc2)c1` returned a TGI above 100 µM.

In turn, `COc1ccc(C2c3cc4c(cc3C(O)C3CCC(=O)N23)OCO4)cc1` (stereo unspecified) registered a TGI above 100 µM.

For `CC1(C)C(=O)N(O)C(C)(C)N1O`, the TGI is above 10 µM.

As to `CCOC(=O)CCC(NC(=O)Cc1ccc(Nc2nc3ccccc3nc2-c2ccccc2)cc1)C(=O)OCC` (stereo unspecified), the TGI was above 100 µM.

`COc1cc(/C=C/C(=O)c2sc(-n3nc(-c4ccccc4)cc3-c3ccccc3)nc2C)ccc1O` gave a TGI above 100 µM.

`O=S1(=O)c2cnccc2NC(=NCc2cccc3ccccc23)N1c1ccccc1` had a TGI of 74.7 µM.

Molecule `COc1cc(NC(C)=O)c2[nH]c3c(C)cc(NC(C)=O)c(C)c3c2c1` gave a TGI above 100 µM.

In turn, `COc1cc(/C=C\c2ccccn2)cc(OC)c1OC` showed a TGI above 100 µM.

Consider `CCCCCC(=O)Nc1n[nH]nc1C(N)=O`, for which the TGI was above 100 µM.

`O=P(O)(OCC(O)O)OCC(O)O` showed a TGI above 100 µM.

`NC(=O)C(Nc1c(Cl)cccc1Cl)c1cc2cc(Br)ccc2nc1Cl` (stereo unspecified) showed a TGI above 100 µM.

`CCOC(=O)CSc1ccnc(=O)[nH]1` showed a TGI above 100 µM.

Turning to `COc1ccc(Br)c2c1CC(C(=O)O)CC2` (stereo unspecified), the TGI is above 100 µM.

Turning to `Fc1cc(C2=C[C@H](c3ccc(Cl)cc3)NC(=S)N2)c(Cl)cc1Cl`, the TGI is above 100 µM.

Another assay has as its system A498 renal. The experiment in a line: growth of human tumour cells (NCI), 48 h.
With `Cn1c(O)c(C(=O)Nc2cccs2)c(=O)[nH]c1=S`, the TGI came out at 35.8 µM.

On to `O=C1c2cc3c(cc2CC12Cc1cc4c(cc1C2=O)CCCC4)CCCC3`, for which the TGI was above 100 µM.

Molecule `c1csc(-c2cscc2-c2ccsc2)c1` yielded a TGI above 100 µM.

For `COc1ccc(C2c3cc4c(cc3C(O)C3CCC(=O)N23)OCO4)cc1` (stereo unspecified), the TGI was above 100 µM.

As for `CC1(C)C(=O)N(O)C(C)(C)N1O`, the TGI was above 10 µM.

For `CCOC(=O)CCC(NC(=O)Cc1ccc(Nc2nc3ccccc3nc2-c2ccccc2)cc1)C(=O)OCC` (stereo unspecified), the TGI is above 100 µM.

`COc1cc(/C=C/C(=O)c2sc(-n3nc(-c4ccccc4)cc3-c3ccccc3)nc2C)ccc1O` yielded a TGI above 100 µM.

In turn, `O=S1(=O)c2cnccc2NC(=NCc2cccc3ccccc23)N1c1ccccc1` returned a TGI above 100 µM.

The molecule `COc1cc(NC(C)=O)c2[nH]c3c(C)cc(NC(C)=O)c(C)c3c2c1` returned a TGI above 100 µM.

As for `COc1cc(/C=C\c2ccccn2)cc(OC)c1OC`, the TGI is above 100 µM.

`CCCCCC(=O)Nc1n[nH]nc1C(N)=O` yielded a TGI above 100 µM.

As to `O=P(O)(OCC(O)O)OCC(O)O`, the TGI is above 100 µM.

`NC(=O)C(Nc1c(Cl)cccc1Cl)c1cc2cc(Br)ccc2nc1Cl` (stereo unspecified) displayed a TGI above 100 µM.

With `CCOC(=O)CSc1ccnc(=O)[nH]1`, the TGI was above 100 µM.

In the case of `COc1ccc(Br)c2c1CC(C(=O)O)CC2` (stereo unspecified), the TGI is above 100 µM.

With `Fc1cc(C2=C[C@H](c3ccc(Cl)cc3)NC(=S)N2)c(Cl)cc1Cl`, the TGI is 89.6 µM.

The subject of the next assay is BT-549 breast. The experiment in a line: growth of human tumour cells (NCI), 48 h.
`O=C1c2cc3c(cc2CC12Cc1cc4c(cc1C2=O)CCCC4)CCCC3` registered a TGI above 100 µM.

For `c1csc(-c2cscc2-c2ccsc2)c1`, the TGI was above 100 µM.

Molecule `COc1ccc(C2c3cc4c(cc3C(O)C3CCC(=O)N23)OCO4)cc1` (stereo unspecified) returned a TGI above 100 µM.

In turn, `CC1(C)C(=O)N(O)C(C)(C)N1O` returned a TGI above 10 µM.

`CCOC(=O)CCC(NC(=O)Cc1ccc(Nc2nc3ccccc3nc2-c2ccccc2)cc1)C(=O)OCC` (stereo unspecified) registered a TGI above 100 µM.

Turning to `O=S1(=O)c2cnccc2NC(=NCc2cccc3ccccc23)N1c1ccccc1`, the TGI is above 100 µM.

Consider `CCCCCC(=O)Nc1n[nH]nc1C(N)=O`, for which the TGI is above 100 µM.

Consider `NC(=O)C(Nc1c(Cl)cccc1Cl)c1cc2cc(Br)ccc2nc1Cl` (stereo unspecified), for which the TGI was above 100 µM.

With `COc1ccc(Br)c2c1CC(C(=O)O)CC2` (stereo unspecified), the TGI is above 100 µM.

As to `Fc1cc(C2=C[C@H](c3ccc(Cl)cc3)NC(=S)N2)c(Cl)cc1Cl`, the TGI is above 100 µM.

In another assay the test system is CCRF-CEM leukemia. As to the kind of experiment: growth of human tumour cells (NCI), 48 h.
`Cn1c(O)c(C(=O)Nc2cccs2)c(=O)[nH]c1=S` displayed a TGI above 100 µM.

`O=C1c2cc3c(cc2CC12Cc1cc4c(cc1C2=O)CCCC4)CCCC3`: the TGI was above 100 µM.

As for `c1csc(-c2cscc2-c2ccsc2)c1`, the TGI is above 100 µM.

`COc1ccc(C2c3cc4c(cc3C(O)C3CCC(=O)N23)OCO4)cc1` (stereo unspecified) registered a TGI above 100 µM.

For the molecule `CC1(C)C(=O)N(O)C(C)(C)N1O`, the TGI is above 10 µM.

`CCOC(=O)CCC(NC(=O)Cc1ccc(Nc2nc3ccccc3nc2-c2ccccc2)cc1)C(=O)OCC` (stereo unspecified) had a TGI above 100 µM.

`COc1cc(/C=C/C(=O)c2sc(-n3nc(-c4ccccc4)cc3-c3ccccc3)nc2C)ccc1O`: the TGI was above 100 µM.

`O=S1(=O)c2cnccc2NC(=NCc2cccc3ccccc23)N1c1ccccc1` registered a TGI above 100 µM.

As for `COc1cc(NC(C)=O)c2[nH]c3c(C)cc(NC(C)=O)c(C)c3c2c1`, the TGI is above 100 µM.

`COc1cc(/C=C\c2ccccn2)cc(OC)c1OC` registered a TGI above 100 µM.

Regarding `CCCCCC(=O)Nc1n[nH]nc1C(N)=O`, the TGI was above 100 µM.

For `O=P(O)(OCC(O)O)OCC(O)O`, the TGI was above 100 µM.

Consider `NC(=O)C(Nc1c(Cl)cccc1Cl)c1cc2cc(Br)ccc2nc1Cl` (stereo unspecified), for which the TGI was above 100 µM.

`CCOC(=O)CSc1ccnc(=O)[nH]1` came in with a TGI above 100 µM.

Regarding `COc1ccc(Br)c2c1CC(C(=O)O)CC2` (stereo unspecified), the TGI is above 100 µM.

Molecule `Fc1cc(C2=C[C@H](c3ccc(Cl)cc3)NC(=S)N2)c(Cl)cc1Cl` returned a TGI above 100 µM.

The next assay relates to HCT-116 colon. As to the kind of experiment: growth of human tumour cells (NCI), 48 h.
In the case of `CCOC(C[C@H](O)[C@H]1COC(=S)S1)OCC`, the TGI is above 100 µM.

In turn, `Cn1c(O)c(C(=O)Nc2cccs2)c(=O)[nH]c1=S` yielded a TGI of 26.5 µM.

The molecule `O=C1c2cc3c(cc2CC12Cc1cc4c(cc1C2=O)CCCC4)CCCC3` had a TGI above 100 µM.

`c1csc(-c2cscc2-c2ccsc2)c1` displayed a TGI above 100 µM.

As to `COc1ccc(C2c3cc4c(cc3C(O)C3CCC(=O)N23)OCO4)cc1` (stereo unspecified), the TGI is above 100 µM.

In the case of `CC1(C)C(=O)N(O)C(C)(C)N1O`, the TGI was above 10 µM.

Take `CCOC(=O)CCC(NC(=O)Cc1ccc(Nc2nc3ccccc3nc2-c2ccccc2)cc1)C(=O)OCC` (stereo unspecified): the TGI was above 100 µM.

The molecule `O=S1(=O)c2cnccc2NC(=NCc2cccc3ccccc23)N1c1ccccc1` had a TGI above 100 µM.

The molecule `COc1cc(NC(C)=O)c2[nH]c3c(C)cc(NC(C)=O)c(C)c3c2c1` displayed a TGI above 100 µM.

The molecule `COc1cc(/C=C\c2ccccn2)cc(OC)c1OC` came in with a TGI above 100 µM.

`CCCCCC(=O)Nc1n[nH]nc1C(N)=O` yielded a TGI above 100 µM.

In turn, `O=P(O)(OCC(O)O)OCC(O)O` yielded a TGI above 100 µM.

The record behind these values is PubChem BioAssay (NCI).
